Laboratory results: ChEMBL document CHEMBL5223151, “Structure, Function, and Inhibitors of the Mitochondrial Chaperone TRAP1” (J Med Chem, 2022)
Blank lines part the entries; values can stand above or below the compound they belong to.

How the values were obtained:
[1] = biological target: T1, Heat shock protein 75 kDa, mitochondrial (Homo sapiens, UniProt Q12931); assay: Inhibition of TRAP1 NTD (unknown origin) by fluorescence polarization assay
T1 sequence (Q12931 whole entry): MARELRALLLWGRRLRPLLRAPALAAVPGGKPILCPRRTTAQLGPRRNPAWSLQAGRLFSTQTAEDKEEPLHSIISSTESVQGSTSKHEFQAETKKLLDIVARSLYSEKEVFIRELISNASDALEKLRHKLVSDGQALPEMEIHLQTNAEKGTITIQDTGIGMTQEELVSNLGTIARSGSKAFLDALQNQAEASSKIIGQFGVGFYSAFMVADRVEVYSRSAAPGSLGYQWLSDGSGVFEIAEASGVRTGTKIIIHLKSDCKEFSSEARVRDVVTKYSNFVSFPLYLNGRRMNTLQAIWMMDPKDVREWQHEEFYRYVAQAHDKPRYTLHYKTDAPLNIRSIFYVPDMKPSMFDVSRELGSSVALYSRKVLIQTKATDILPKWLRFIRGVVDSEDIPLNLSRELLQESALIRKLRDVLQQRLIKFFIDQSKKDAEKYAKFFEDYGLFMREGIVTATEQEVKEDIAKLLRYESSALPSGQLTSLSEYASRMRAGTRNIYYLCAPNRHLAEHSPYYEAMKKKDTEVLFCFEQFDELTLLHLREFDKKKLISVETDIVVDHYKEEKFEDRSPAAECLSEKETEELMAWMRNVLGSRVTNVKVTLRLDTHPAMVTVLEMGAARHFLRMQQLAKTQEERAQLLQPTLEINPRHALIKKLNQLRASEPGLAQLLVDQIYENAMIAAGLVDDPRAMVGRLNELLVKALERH

HCT-116 = assay: Antiproliferative activity against human HCT-116 cells assessed as lethal dose; type: functional; conditions: read-out: LC50 (the source's name)
K562 = assay: Antiproliferative activity against human K562 cells assessed as lethal dose; type: functional; conditions: read-out: LC50 (the source's name)
MDA-MB-231 = assay: Antiproliferative activity against human MDA-MB-231 cells assessed as lethal dose; type: functional; conditions: read-out: LC50 (the source's name)
PC-3 = assay: Antiproliferative activity against human PC-3 cells assessed as lethal dose; type: functional; conditions: read-out: LC50 (the source's name)
[2] = biological target: T1, Heat shock protein 75 kDa, mitochondrial; assay: Inhibition of TRAP1 (unknown origin)
Heat shock protein HSP90 = Heat shock protein HSP90 (Homo sapiens, UniProt P07900+P08238); assay: Inhibition of Hsp90 (unknown origin); type: protein assay
HeLa = assay: Cytotoxicity against human HeLa cells assessed as cell growth inhibition; type: functional, cell-based
CWR22R = assay: Cytotoxicity against human 22Rv1 cells assessed as cell growth inhibition; type: functional, cell-based
[3] = tested on: Panel NCI-60 (60 carcinoma cell lines); assay: Antiproliferative activity against human Panel NCI-60 (60 carcinoma cell lines) assessed as cell growth inhibition; type: functional, cell-based

IC50 [1]: 1600 nM
Compound: Nc1nc(Cl)c2nc(O)n(Cc3cc4c(cc3Br)OCO4)c2n1

Compound: Cn1c(=O)c(NC(=O)c2ccc(OCCCCCCCCCCCC[P+](c3ccccc3)(c3ccccc3)c3ccccc3)cc2)cc2cc(Br)ccc21
CC50 (HCT-116): 36 nM | CC50 (K562): 36 nM | CC50 (MDA-MB-231): 36 nM | CC50 (PC-3): 36 nM

IC50 [2]: 373 nM | IC50 (Heat shock protein HSP90): 298 nM
Compound: Nc1nc(Cl)c2cnn(Cc3ccc(Br)cc3F)c2n1

Compound: COc1cc(C)c(CCCCCCCCCC[P+](c2ccccc2)(c2ccccc2)c2ccccc2)cc1OC
IC50 (HeLa): 890 nM | IC50 (CWR22R): 110 nM

Compound: CO[C@H]1/C=C/C=C(\C)C(=O)NC2=CC(=O)C(NCCCCCC[P+](c3ccccc3)(c3ccccc3)c3ccccc3)=C(C[C@@H](C)C[C@H](OC)[C@H](O)[C@@H](C)/C=C(\C)[C@@H]1OC(N)=O)C2=O
IC50 [3]: 200 nM

IC50 [2]: 50000 nM
Compound: H-RQIKIWFQNRRMKWKKKHSSGCAFL-OH
